# According to patent US6462055B2, “Alpha-methylbenzyl-containing thiourea inhibitors of herpes viruses containing a phenylenediamine group” (Wyeth, priority 1998, dated 2002):
# Legend:
# VZV strain Ellen = experiment: VZV Antiviral (ELISA) Assay in human foreskin fibroblast cells; assay type: cell-based, varicella-zoster virus; conditions: Human alphaherpesvirus 3, Fibroblast; for inhibition at 10 µg/mL: read-out: % inhibition 10 ug/ml VZV, 10 ug/ml; for IC50: read-out: IC50 (ug/ml) VZV
# Procedure: For the generation of stock VZV to be used in the assay, VZV strain Ellen (ATCC #VR-1367) is used to infect human foreskin fibroblast (HFF) cells at low multiplicity (less than 0.1) and incubated overnight at 37° C. in 5% CO2. After the overnight incubation, the mixture of uninfected and VZV-infected HFF infected cells are then harvested and added to each well of 96-well plates (3.5×10^4 cells in 100 μl DMEM supplemented with 2% FBS) which contain test compound or the reference standard drug control (in 100 μl DMEM supplemented with 2% FBS per well). These cells are incubated for three days at 37° C. in 5% CO2, then fixed for ELISA assay. The primary antibody is murine anti-VZV glycoprotein II monoclonal antibody (Applied Biosystems, Inc. #13-145-100) and the secondary antibody is goat anti-mouse IgG linked to β-galactosidase. Thus the extent of viral replication is determined by assessing β-galactosidase activity by quantifying the generation of the 4-methyl umbelliferone fluorescent cleavage product after addition of the methyl umbelliferyl-β-D-galactoside (Sigma #M1633) substrate on a microfluorimeter (365 nm for excitation and 450 nm for emission). Antiviral activity (IC50) of the test compound is determined by comparing the flourescence obtained in absence of compound to that obtained in the presence of compound.
# HSV-1 = experiment: HSV Antiviral (ELISA) Assay in Vero cells; assay type: cell-based, herpes simplex virus type 1; conditions: Human alphaherpesvirus 1; HSV-1, Vero cells; read-out: IC50 (ug/ml) HSV
# Procedure: Vero cells (ATCC #CCL-81) are plated on 96-well tissue culture plates at 3.5×10^4 cells per 100 μl tissue culture DMEM (Dulbeccos modified Eagle media) supplemented with 2% fetal bovine serum (FBS) in each well. After overnight incubation @ 37° C. (in 5% CO2) and 30 minutes prior to infection with HSV-1 (multiplicity of infection equal to 0.006), cells are either untreated, or treated with test compound (multiple concentrations) or reference standard drug control. After approximately 24 hours post-infection incubation @ 37° C. (in 5% CO2), cells are fixed for ELISA assay. The primary antibody is murine anti-HSV glycoprotein D monoclonal primary antibody and the secondary antibody is goat anti-mouse IgG linked to β-galactosidase. Thus the extent of viral replication is determined by assessing β-galactosidase activity by quantifying the generation of the 4-methyl umbelliferone fluorescent cleavage product after addition of the methyl umbelliferyl-β-D-galactoside (Sigma #M1633) substrate on a microfluorimeter (365 nm for excitation and 450 nm for emission). Antiviral activity (IC50) of the test compound is determined by comparing the flourescence obtained in absence of compound to that obtained in the presence of compound.
Compound,inhibition at 10 µg/mL (VZV strain Ellen),IC50 (VZV strain Ellen),IC50 (HSV-1)
"COc1ccc(NC(=S)Nc2ccc(NC(=O)c3ccccc3)cc2)cc1Cl [Example 817, N-{4-[3-(3-Chloro-4-methoxy-phenyl)-thioureido]-phenyl}-benzamide]",66%,12 µg/mL,1 µg/mL
"COc1cccc(C(=O)Nc2ccc(NC(=S)Nc3ccc(OC)c(Cl)c3)cc2)c1 [Example 819, N-{4-[3-(3-Chloro-4-methoxy-phenyl)-thioureido]-phenyl}-3-methoxy-benzamide]",93%,2.5 µg/mL,6 µg/mL
"COc1ccc(C(=O)Nc2ccc(NC(=S)Nc3ccc(OC)c(Cl)c3)cc2)cc1 [Example 820, N-{4-[3-(3-Chloro-4-methoxy-phenyl)-thioureido]-phenyl}-4-methoxy-benzamide]",20%,> 10 µg/mL,4 µg/mL
"COc1cc(OC)c(NC(=S)Nc2ccc(NC(=O)c3ccccc3F)cc2)cc1Br [Example 827, N-{4-[3-(5-Bromo-2,4-dimethoxy-phenyl)-thioureido]-phenyl}-2-fluoro-benzamide]",70%,3.5 µg/mL,0.2 µg/mL
"CSc1ccc(NC(=S)Nc2ccc(NC(=O)c3ccccc3F)cc2)cc1Cl [Example 847, N-{4-[3-(3-Chloro-4-methylsulfanyl-phenyl)-thioureido]-phenyl}-2-fluoro-benzamide]",65%,> 10 µg/mL,0.4 µg/mL
"COc1cc(C)c(Cl)cc1NC(=S)Nc1ccc(NC(=O)c2ccccc2C)cc1 [Example 850, N-{4-[3-(5-Chloro-2-methoxy-4-methyl-phenyl)-thioureido]-phenyl}-2-methyl-benzamide]",28%,5 µg/mL,0.09 µg/mL
"CN(C)c1ccc(NC(=S)Nc2ccc(NC(=O)c3ccccc3F)cc2)cc1Cl [Example 852, N-{4-[3-(3-Chloro-4-dimethylamino-phenyl)-thioureido]-phenyl}-2-fluoro-benzamide]",80%,6.5 µg/mL,4 µg/mL
"CN(c1ccc(NC(=S)Nc2ccc(NC(=O)c3ccccc3F)cc2)cc1Cl)C1CCN(Cc2ccccc2)C1 (stereo not shown) [Example 857, N-[4-(3-{4-[(1-Benzyl-pyrrolidin-3-yl)-methyl-amino]-3-chloro-phenyl}-thioureido)-phenyl]-2-fluoro-benzamide]",80%,7 µg/mL,2 µg/mL
"CC(O)c1ccc(NC(=S)Nc2ccc(NC(=O)c3ccccc3F)cc2)cc1Cl (stereo not shown) [Example 865, N-(4-{3-[3-Chloro-4-(1-hydroxy-ethyl)-phenyl]-thioureido}-phenyl)-2-fluoro-benzamide]",52%,> 10 µg/mL,4 µg/mL
"COc1c(Cl)cc(NC(=S)Nc2ccc(NC(=O)c3cccc(F)c3)cc2)cc1Cl [Example 872, N-{4-[3-(3,5-Dichloro-4-methoxy-phenyl)-thioureido]-phenyl}-3-fluoro-benzamide]",28%,> 10 µg/mL,4 µg/mL
"COc1c(Cl)cc(NC(=S)Nc2ccc(NC(=O)c3ccccc3F)cc2)cc1Cl [Example 874, N-{4-[3-(3,5-Dichloro-4-methoxy-phenyl)-thioureido]-phenyl}-2-fluoro-benzamide]",75%,3.5 µg/mL,5 µg/mL
"COc1cccc(C(=O)Nc2ccc(NC(=S)Nc3cc(Cl)c(OC)c(Cl)c3)cc2)c1 [Example 875, N-{4-[3-(3,5-Dichloro-4-methoxy-phenyl)thioureido]-phenyl}-3-methoxy-benzamide]",20%,> 10 µg/mL,6 µg/mL
"COc1ccc(C(=O)Nc2ccc(NC(=S)Nc3cc(Cl)c(OC)c(Cl)c3)cc2)cc1 [Example 880, N-{4-[3-(3,5-Dichloro-4-methoxy-phenyl)-thioureido]-phenyl}-4-methoxy-benzamide]",30%,> 10 µg/mL,> 10 µg/mL
"O=C(Nc1ccc(NC(=S)Nc2cccc(Cl)c2Cl)cc1)c1ccccc1F [Example 927, N-{4-[3-(2,3-Dichloro-phenyl)-thioureido]-phenyl}-2-fluoro-benzamide]",1%,–,5 µg/mL
"O=C(Nc1ccc(NC(=S)Nc2ccccc2Cl)cc1)c1ccccc1F [Example 948, N-{4-[3-(2-Chloro-phenyl)-thioureido]-phenyl}-2-fluoro-benzamide]",4%,> 10 µg/mL,6 µg/mL
"CC(NC(=S)Nc1ccc(NC(=O)c2nccc3ccccc23)cc1)c1ccc(Br)cc1 (stereo not shown) [Example 978, Isoquinoline-1-carboxylic acid (4-{3-[1-(4-bromo-phenyl)ethyl]-thioureido}-phenyl)-amide]",–,0.04 µg/mL,> 10 µg/mL
"CC(NC(=S)Nc1ccc(NC(=O)c2nccc3ccccc23)cc1)c1ccc(C#N)cc1 (stereo not shown) [Example 979, Isoquinoline-1-carboxylic acid (4-{3-[1-(4-cyano-phenyl)-ethyl]-thioureido}-phenyl)-amide]",–,0.13 µg/mL,> 10 µg/mL
"CC(NC(=S)Nc1ccc(NC(=O)c2cc3ccccc3o2)cc1)c1ccc(Br)cc1 (stereo not shown) [Example 982, Benzofuran-2-carboxylic acid (4-{3-[1-(4-bromo-phenyl)-ethyl]-thioureido}-phenyl)-amide]",–,0.1 µg/mL,> 10 µg/mL
"CC(NC(=S)Nc1ccc(NC(=O)c2cc3ccccc3o2)cc1)c1ccc(C#N)cc1 (stereo not shown) [Example 983, Benzofuran-2-carboxylic acid (4-{3-[1-(4-cyano-phenyl)-ethyl]-thioureido}-phenyl)-amide]",–,0.6 µg/mL,> 10 µg/mL
"CC(NC(=S)Nc1ccc(NC(=O)c2cc3ccccc3cn2)cc1)c1ccc(F)cc1 (stereo not shown) [Example 984, Isoquinoline-3-carboxylic acid (4-{3-[1-(4-fluoro-phenyl)ethyl]-thioureido}-phenyl)-amide]",–,0.08 µg/mL,7.2 µg/mL
"CC(NC(=S)Nc1ccc(NC(=O)c2cc3ccccc3cn2)cc1)c1ccc(C#N)cc1 (stereo not shown) [Example 986, Isoquinoline-3-carboxylic acid (4-{3-[1-(4-cyano-phenyl)-ethyl]-thioureido}-phenyl)-amide]",–,0.05 µg/mL,> 10 µg/mL
"CC(NC(=S)Nc1ccc(NC(=O)c2cc3ccccc3cn2)cc1)c1ccc(Br)cc1 (stereo not shown) [Example 987, Isoquinoline-3-carboxylic acid (4-{3-[1-(4-bromo-phenyl)-ethyl]-thioureido}-phenyl)-amide]",–,0.046 µg/mL,3 µg/mL
"CC(NC(=S)Nc1ccc(NC(=O)c2cccc3cccnc23)cc1)c1ccc(F)cc1 (stereo not shown) [Example 991, Quinoline-8-carboxylic acid (4-{3-[1-(4-fluoro-phenyl)-ethyl]-thioureido}-phenyl)-amide]",–,0.1 µg/mL,> 10 µg/mL
"COc1ccc(C(C)NC(=S)Nc2ccc(NC(=O)c3ccccc3F)cc2)cc1Cl (stereo not shown) [Example 1000, N-(4-{3-[1-(3-Chloro-4-methoxy-phenyl)-ethyl]-thioureido}-phenyl)-2-fluoro-benzamide]",–,6 µg/mL,> 10 µg/mL
"C[C@H](NC(=S)Nc1ccc(NC(=O)c2ccccc2F)cc1)c1ccc(Br)cc1 [Example 1004, (S)-N-(4-{3-[1-(4-Bromo-phenyl)-ethyl]-thioureido}-phenyl)-2-fluoro-benzamide]",–,0.06 µg/mL,> 10 µg/mL
